Laboratory results: patent US20250230147A1, “LACTAMS AS CBL-B INHIBITORS” (Genentech, Inc., priority 2021, published 2025)

Tests used:
c-Cbl = c-Cbl (Homo sapiens (Human), UniProt P22681); assay: C-Cbl LCK Ub TR-FRET assay (c-cbl Lck HTRF); type: biochemical; conditions: for (fold-selectivity): C-cbl Lck HTRF IC50 relative to Cbl-b Lck HTRF IC50
Outline: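 After the ubiquitination reaction, detection mixture was added and plates incubated 20 min at room temperature before reading. IC50 values were calculated with wells lacking LCK as the low control and DMSO as the high control.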

Cbl-b = Cbl-b (Homo sapiens (Human), UniProt Q13191); assay: Cbl-b LCK Ub TR-FRET assay (Cbl-b Lck HTRF); type: biochemical
Outline: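 TR-FRET (340 nm excitation, 615/665 nm emission) read after adding HA-ubiquitin–UBE2D2 thioester, anti-HA-D2 and streptavidin-Eu. Beforehand, compounds incubated 60 min with biotinylated Cbl-b, then 90 min with His-LCK and ATP (1 mM in 2× mix); IC50 from 10 concentrations, DMSO high and no-LCK low controls.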

Sequence of c-Cbl (P22681 47-435): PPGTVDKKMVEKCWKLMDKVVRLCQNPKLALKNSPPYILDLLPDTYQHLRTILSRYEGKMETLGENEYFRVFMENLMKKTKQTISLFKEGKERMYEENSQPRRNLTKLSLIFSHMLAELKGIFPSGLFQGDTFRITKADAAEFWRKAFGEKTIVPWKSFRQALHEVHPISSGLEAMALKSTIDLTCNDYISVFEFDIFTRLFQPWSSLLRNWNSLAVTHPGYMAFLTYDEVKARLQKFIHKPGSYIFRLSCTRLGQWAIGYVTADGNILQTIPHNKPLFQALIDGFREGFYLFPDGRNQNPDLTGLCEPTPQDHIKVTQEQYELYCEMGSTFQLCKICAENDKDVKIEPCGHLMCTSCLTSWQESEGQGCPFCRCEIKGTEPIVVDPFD
Sequence of Cbl-b (Q13191 40-426): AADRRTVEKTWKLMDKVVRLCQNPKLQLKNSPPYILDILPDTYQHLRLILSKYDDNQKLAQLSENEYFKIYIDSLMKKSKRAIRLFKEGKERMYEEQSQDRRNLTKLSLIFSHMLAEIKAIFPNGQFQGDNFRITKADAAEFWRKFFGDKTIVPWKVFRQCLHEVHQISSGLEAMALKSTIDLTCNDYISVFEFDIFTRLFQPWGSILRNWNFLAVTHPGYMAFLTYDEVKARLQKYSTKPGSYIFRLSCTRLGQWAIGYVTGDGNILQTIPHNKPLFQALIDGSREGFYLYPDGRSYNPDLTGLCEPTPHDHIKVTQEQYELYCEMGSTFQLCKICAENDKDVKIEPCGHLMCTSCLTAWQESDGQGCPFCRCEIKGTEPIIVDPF

IC50 (c-Cbl) [nM] | (fold-selectivity) (c-Cbl) [x] | IC50 (Cbl-b) [nM] | SMILES
110 | 2.1 | 54 | COC1(C)CN(Cc2cc3c(c(C(F)(F)F)c2)CN(c2cccc(C4([C@@H](F)c5nncn5C)COC4)c2)C3=O)C1 [Compound 179, (R)-2-(3-(3-(fluoro(4-methyl-4H-1,2,4-triazol-3-yl)methyl)oxetan-3-yl)phenyl)-6-((3-methoxy-3-methylazetidin-1-yl)methyl)-4-(trifluoromethyl)isoindolin-1-one]
430 | 1.9 | 220 | COC1(C)CN(Cc2cc3c(c(C(F)(F)F)c2)CN(c2cccc(C4([C@H](F)c5nncn5C)COC4)c2)C3=O)C1 [Compound 180, (S)-2-(3-(3-(fluoro(4-methyl-4H-1,2,4-triazol-3-yl)methyl)oxetan-3-yl)phenyl)-6-((3-methoxy-3-methylazetidin-1-yl)methyl)-4-(trifluoromethyl)isoindolin-1-one]
110 | 2.1 | 52 | Cn1cnnc1[C@H](F)C1(c2cccc(N3Cc4c(cc(CN5CC6(C5)CS(=O)(=O)C6)cc4C(F)(F)F)C3=O)c2)COC1 [Compound 181, (R)-6-((2,2-dioxido-2-thia-6-azaspiro[3.3]heptan-6-yl)methyl)-2-(3-(3-(fluoro(4-methyl-4H-1,2,4-triazol-3-yl)methyl)oxetan-3-yl)phenyl)-4-(trifluoromethyl)isoindolin-1-one]
430 | 2.6 | 170 | Cn1cnnc1[C@@H](F)C1(c2cccc(N3Cc4c(cc(CN5CC6(C5)CS(=O)(=O)C6)cc4C(F)(F)F)C3=O)c2)COC1 [Compound 182, (S)-6-((2,2-dioxido-2-thia-6-azaspiro[3.3]heptan-6-yl)methyl)-2-(3-(3-(fluoro(4-methyl-4H-1,2,4-triazol-3-yl)methyl)oxetan-3-yl)phenyl)-4-(trifluoromethyl)isoindolin-1-one]
120 | 2.2 | 57 | CC(C)C1(O)CN(Cc2cc3c(c(C(F)(F)F)c2)CN(c2cccc(C4([C@@H](F)c5nncn5C)COC4)c2)C3=O)C1 [Compound 183, (R)-2-(3-(3-(fluoro(4-methyl-4H-1,2,4-triazol-3-yl)methyl)oxetan-3-yl)phenyl)-6-((3-hydroxy-3-isopropylazetidin-1-yl)methyl)-4-(trifluoromethyl)isoindolin-1-one]
370 | 2.3 | 160 | CC(C)C1(O)CN(Cc2cc3c(c(C(F)(F)F)c2)CN(c2cccc(C4([C@H](F)c5nncn5C)COC4)c2)C3=O)C1 [Compound 184, (S)-2-(3-(3-(fluoro(4-methyl-4H-1,2,4-triazol-3-yl)methyl)oxetan-3-yl)phenyl)-6-((3-hydroxy-3-isopropylazetidin-1-yl)methyl)-4-(trifluoromethyl)isoindolin-1-one]
110 | 1.5 | 72 | COCC1(O)CN(Cc2cc3c(c(C(F)(F)F)c2)CN(c2cccc(C4([C@@H](F)c5nncn5C)COC4)c2)C3=O)C1 [Compound 185, (R)-2-(3-(3-(fluoro(4-methyl-4H-1,2,4-triazol-3-yl)methyl)oxetan-3-yl)phenyl)-6-((3-hydroxy-3-(methoxymethyl)azetidin-1-yl)methyl)-4-(trifluoromethyl)isoindolin-1-one]
200 | 1.7 | 110 | COCC1(O)CN(Cc2cc3c(c(C(F)(F)F)c2)CN(c2cccc(C4([C@H](F)c5nncn5C)COC4)c2)C3=O)C1 [Compound 186, (S)-2-(3-(3-(fluoro(4-methyl-4H-1,2,4-triazol-3-yl)methyl)oxetan-3-yl)phenyl)-6-((3-hydroxy-3-(methoxymethyl)azetidin-1-yl)methyl)-4-(trifluoromethyl)isoindolin-1-one]

The next lines start with the compound.

SMILES | IC50 (c-Cbl) [nM] | (fold-selectivity) (c-Cbl) [x] | IC50 (Cbl-b) [nM]
CCC1(O)CN(Cc2cc3c(c(C(F)(F)F)c2)CN(c2cccc(C4([C@@H](F)c5nncn5C)COC4)c2)C3=O)C1 [Compound 167, (R)-6-((3-ethyl-3-hydroxyazetidin-1-yl)methyl)-2-(3-(3-(fluoro(4-methyl-4H-1,2,4-triazol-3-yl)methyl)oxetan-3-yl)phenyl)-4-(trifluoromethyl)isoindolin-1-one] | 150 | 2.5 | 59
CCC1(O)CN(Cc2cc3c(c(C(F)(F)F)c2)CN(c2cccc(C4([C@H](F)c5nncn5C)COC4)c2)C3=O)C1 [Compound 168, (S)-6-((3-ethyl-3-hydroxyazetidin-1-yl)methyl)-2-(3-(3-(fluoro(4-methyl-4H-1,2,4-triazol-3-yl)methyl)oxetan-3-yl)phenyl)-4-(trifluoromethyl)isoindolin-1-one] | 380 | 2.1 | 180
C=CC1(O)CN(Cc2cc3c(c(C(F)(F)F)c2)CN(c2cccc(C4([C@@H](F)c5nncn5C)COC4)c2)C3=O)C1 [Compound 169, (R)-2-(3-(3-(fluoro(4-methyl-4H-1,2,4-triazol-3-yl)methyl)oxetan-3-yl)phenyl)-6-((3-hydroxy-3-vinylazetidin-1-yl)methyl)-4-(trifluoromethyl)isoindolin-1-one] | 99 | 2.2 | 44
C=CC1(O)CN(Cc2cc3c(c(C(F)(F)F)c2)CN(c2cccc(C4([C@H](F)c5nncn5C)COC4)c2)C3=O)C1 [Compound 170, (S)-2-(3-(3-(fluoro(4-methyl-4H-1,2,4-triazol-3-yl)methyl)oxetan-3-yl)phenyl)-6-((3-hydroxy-3-vinylazetidin-1-yl)methyl)-4-(trifluoromethyl)isoindolin-1-one] | 360 | 2.5 | 140
CCCC1(O)CN(Cc2cc3c(c(C(F)(F)F)c2)CN(c2cccc(C4([C@@H](F)c5nncn5C)COC4)c2)C3=O)C1 [Compound 171, (R)-2-(3-(3-(fluoro(4-methyl-4H-1,2,4-triazol-3-yl)methyl)oxetan-3-yl)phenyl)-6-((3-hydroxy-3-propylazetidin-1-yl)methyl)-4-(trifluoromethyl)isoindolin-1-one] | 82 | 1.7 | 49
CCCC1(O)CN(Cc2cc3c(c(C(F)(F)F)c2)CN(c2cccc(C4([C@H](F)c5nncn5C)COC4)c2)C3=O)C1 [Compound 172, (S)-2-(3-(3-(fluoro(4-methyl-4H-1,2,4-triazol-3-yl)methyl)oxetan-3-yl)phenyl)-6-((3-hydroxy-3-propylazetidin-1-yl)methyl)-4-(trifluoromethyl)isoindolin-1-one] | 520 | 2.9 | 180
Cn1cnnc1[C@H](F)C1(c2cccc(N3Cc4c(cc(CN5CC(O)(C6CC6)C5)cc4C(F)(F)F)C3=O)c2)COC1 [Compound 173, (R)-6-((3-cyclopropyl-3-hydroxyazetidin-1-yl)methyl)-2-(3-(3-(fluoro(4-methyl-4H-1,2,4-triazol-3-yl)methyl)oxetan-3-yl)phenyl)-4-(trifluoromethyl)isoindolin-1-one] | 83 | 1.3 | 63
Cn1cnnc1[C@@H](F)C1(c2cccc(N3Cc4c(cc(CN5CC(O)(C6CC6)C5)cc4C(F)(F)F)C3=O)c2)COC1 [Compound 174, (S)-6-((3-cyclopropyl-3-hydroxyazetidin-1-yl)methyl)-2-(3-(3-(fluoro(4-methyl-4H-1,2,4-triazol-3-yl)methyl)oxetan-3-yl)phenyl)-4-(trifluoromethyl)isoindolin-1-one] | 440 | 2.3 | 190
Cn1cnnc1[C@H](F)C1(c2cccc(N3Cc4c(cc(CN5CCC56COC6)cc4C(F)(F)F)C3=O)c2)COC1 [Compound 175, (R)-6-(6-oxa-1-azaspiro[3.3]heptan-1-ylmethyl)-2-(3-(3-(fluoro(4-methyl-4H-1,2,4-triazol-3-yl)methyl)oxetan-3-yl)phenyl)-4-(trifluoromethyl)isoindolin-1-one] | 350 | 2.5 | 150
Cn1cnnc1[C@@H](F)C1(c2cccc(N3Cc4c(cc(CN5CCC56COC6)cc4C(F)(F)F)C3=O)c2)COC1 [Compound 176, (S)-6-(6-oxa-1-azaspiro[3.3]heptan-1-ylmethyl)-2-(3-(3-(fluoro(4-methyl-4H-1,2,4-triazol-3-yl)methyl)oxetan-3-yl)phenyl)-4-(trifluoromethyl)isoindolin-1-one] | 1300 | 3.5 | 350
Cn1cnnc1[C@H](F)C1(c2cccc(N3Cc4c(cc(CN5CC(CCO)C5)cc4C(F)(F)F)C3=O)c2)COC1 [Compound 177, (R)-2-(3-(3-(fluoro(4-methyl-4H-1,2,4-triazol-3-yl)methyl)oxetan-3-yl)phenyl)-6-((3-(2-hydroxyethyl)azetidin-1-yl)methyl)-4-(trifluoromethyl)isoindolin-1-one] | 91 | 2.2 | 41
Cn1cnnc1[C@@H](F)C1(c2cccc(N3Cc4c(cc(CN5CC(CCO)C5)cc4C(F)(F)F)C3=O)c2)COC1 [Compound 178, (S)-2-(3-(3-(fluoro(4-methyl-4H-1,2,4-triazol-3-yl)methyl)oxetan-3-yl)phenyl)-6-((3-(2-hydroxyethyl)azetidin-1-yl)methyl)-4-(trifluoromethyl)isoindolin-1-one] | 350 | 2.0 | 170
